{"source": "paper PMC4144829", "about": "(Nature chemical biology, 2014)", "key": {"[1]": {"system": "human USP1-UAF1", "conditions": "cited from earlier work"}, "[2]": {"biological_target": "SENP1 (Homo sapiens, UniProt Q9P0U3)", "sequence (Q9P0U3 whole entry)": "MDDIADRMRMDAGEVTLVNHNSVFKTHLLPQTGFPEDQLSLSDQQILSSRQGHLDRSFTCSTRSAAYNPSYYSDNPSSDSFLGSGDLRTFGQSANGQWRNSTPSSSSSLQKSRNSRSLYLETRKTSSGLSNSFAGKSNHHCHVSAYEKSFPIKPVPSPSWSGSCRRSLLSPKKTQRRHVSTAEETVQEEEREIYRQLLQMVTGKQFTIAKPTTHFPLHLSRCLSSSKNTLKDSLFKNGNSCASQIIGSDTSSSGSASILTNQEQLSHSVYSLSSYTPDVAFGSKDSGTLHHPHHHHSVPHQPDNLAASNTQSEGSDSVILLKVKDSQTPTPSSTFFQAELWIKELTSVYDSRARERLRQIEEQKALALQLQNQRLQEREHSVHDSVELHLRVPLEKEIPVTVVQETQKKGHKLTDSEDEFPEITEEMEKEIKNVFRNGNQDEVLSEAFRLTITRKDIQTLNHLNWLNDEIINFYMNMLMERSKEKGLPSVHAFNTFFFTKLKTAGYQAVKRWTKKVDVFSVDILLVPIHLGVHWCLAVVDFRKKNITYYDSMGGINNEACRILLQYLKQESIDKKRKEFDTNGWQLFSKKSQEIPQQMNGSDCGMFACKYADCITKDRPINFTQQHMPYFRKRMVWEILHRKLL", "assay": "in vitro deSUMOylase selectivity", "assay_type": "biochemical"}, "[3]": {"biological_target": "USP14 (Homo sapiens, UniProt P54578)", "sequence (P54578 whole entry)": "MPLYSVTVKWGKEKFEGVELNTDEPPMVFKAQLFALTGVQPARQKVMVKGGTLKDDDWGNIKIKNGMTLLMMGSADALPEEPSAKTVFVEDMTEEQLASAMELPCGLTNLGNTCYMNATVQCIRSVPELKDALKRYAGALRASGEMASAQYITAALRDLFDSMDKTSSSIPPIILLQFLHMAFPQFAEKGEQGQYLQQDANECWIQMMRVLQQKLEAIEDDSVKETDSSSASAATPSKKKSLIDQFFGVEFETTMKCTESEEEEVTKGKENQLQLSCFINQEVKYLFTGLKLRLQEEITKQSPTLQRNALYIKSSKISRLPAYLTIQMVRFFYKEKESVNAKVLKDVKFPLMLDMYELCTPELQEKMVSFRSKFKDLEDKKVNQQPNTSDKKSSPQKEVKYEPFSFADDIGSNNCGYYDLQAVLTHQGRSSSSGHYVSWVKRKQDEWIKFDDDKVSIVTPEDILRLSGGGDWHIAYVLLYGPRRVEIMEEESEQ", "assay": "in vitro DUB selectivity"}, "[4]": {"system": "PD20 cells", "assay": "UV sensitivity colony-forming assay", "assay_type": "cell-based, human", "conditions": "20 μM ML323"}, "[5]": {"biological_target": "T1, USP1-UAF1 (Homo sapiens, UniProt O94782)", "T1 sequence (O94782 whole entry)": "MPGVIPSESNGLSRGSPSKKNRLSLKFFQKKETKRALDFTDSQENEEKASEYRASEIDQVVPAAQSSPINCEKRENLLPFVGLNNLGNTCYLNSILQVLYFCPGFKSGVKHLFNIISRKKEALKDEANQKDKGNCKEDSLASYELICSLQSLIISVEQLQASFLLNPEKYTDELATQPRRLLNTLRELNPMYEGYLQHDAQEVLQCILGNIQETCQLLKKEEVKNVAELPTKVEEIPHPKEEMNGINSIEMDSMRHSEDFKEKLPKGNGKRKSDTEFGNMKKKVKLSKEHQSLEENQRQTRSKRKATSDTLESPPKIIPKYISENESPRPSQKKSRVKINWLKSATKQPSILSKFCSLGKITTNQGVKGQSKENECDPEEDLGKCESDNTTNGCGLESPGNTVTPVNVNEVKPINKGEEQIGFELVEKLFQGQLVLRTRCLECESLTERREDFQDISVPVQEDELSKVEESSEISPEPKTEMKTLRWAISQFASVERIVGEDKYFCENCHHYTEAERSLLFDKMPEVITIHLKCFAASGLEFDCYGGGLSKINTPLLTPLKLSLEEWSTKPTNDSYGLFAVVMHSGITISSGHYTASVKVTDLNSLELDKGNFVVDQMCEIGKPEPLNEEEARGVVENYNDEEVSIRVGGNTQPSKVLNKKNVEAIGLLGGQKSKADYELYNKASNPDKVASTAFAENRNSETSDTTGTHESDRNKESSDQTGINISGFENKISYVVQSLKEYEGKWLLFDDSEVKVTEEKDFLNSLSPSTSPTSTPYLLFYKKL", "T1 sequence (Q8TAF3 whole entry partner)": "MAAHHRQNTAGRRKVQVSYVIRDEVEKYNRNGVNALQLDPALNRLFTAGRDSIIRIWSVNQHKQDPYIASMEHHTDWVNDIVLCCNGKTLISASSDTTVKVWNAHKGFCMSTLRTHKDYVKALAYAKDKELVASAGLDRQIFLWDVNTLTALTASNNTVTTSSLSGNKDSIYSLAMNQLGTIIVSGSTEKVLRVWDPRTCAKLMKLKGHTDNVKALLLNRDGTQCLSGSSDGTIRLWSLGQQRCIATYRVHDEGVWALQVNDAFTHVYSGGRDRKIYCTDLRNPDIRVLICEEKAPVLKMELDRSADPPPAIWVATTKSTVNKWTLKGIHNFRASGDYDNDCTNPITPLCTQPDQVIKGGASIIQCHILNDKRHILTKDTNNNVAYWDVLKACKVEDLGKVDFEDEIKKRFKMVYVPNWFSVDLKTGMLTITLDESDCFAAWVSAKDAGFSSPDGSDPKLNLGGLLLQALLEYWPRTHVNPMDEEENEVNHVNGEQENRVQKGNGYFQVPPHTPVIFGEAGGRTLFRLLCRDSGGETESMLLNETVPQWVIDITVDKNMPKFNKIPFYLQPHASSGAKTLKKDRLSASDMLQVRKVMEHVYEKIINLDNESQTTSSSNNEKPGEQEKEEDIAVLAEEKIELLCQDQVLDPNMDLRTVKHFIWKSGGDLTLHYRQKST", "assay": "reversibility", "assay_type": "biochemical", "conditions": "100-fold dilution after treatment at ten times the IC50 for 15, 30 and 60 min"}, "[6]": {"system": "PD20 + D2 cells", "assay": "UV sensitivity colony-forming assay", "assay_type": "cell-based, human", "conditions": "with ML323"}, "[7]": {"biological_target": "T1, USP1-UAF1", "assay": "inhibition mechanism determination", "assay_type": "biochemical"}, "[8]": {"biological_target": "USP10 (Homo sapiens, UniProt Q14694)", "sequence (Q14694 whole entry)": "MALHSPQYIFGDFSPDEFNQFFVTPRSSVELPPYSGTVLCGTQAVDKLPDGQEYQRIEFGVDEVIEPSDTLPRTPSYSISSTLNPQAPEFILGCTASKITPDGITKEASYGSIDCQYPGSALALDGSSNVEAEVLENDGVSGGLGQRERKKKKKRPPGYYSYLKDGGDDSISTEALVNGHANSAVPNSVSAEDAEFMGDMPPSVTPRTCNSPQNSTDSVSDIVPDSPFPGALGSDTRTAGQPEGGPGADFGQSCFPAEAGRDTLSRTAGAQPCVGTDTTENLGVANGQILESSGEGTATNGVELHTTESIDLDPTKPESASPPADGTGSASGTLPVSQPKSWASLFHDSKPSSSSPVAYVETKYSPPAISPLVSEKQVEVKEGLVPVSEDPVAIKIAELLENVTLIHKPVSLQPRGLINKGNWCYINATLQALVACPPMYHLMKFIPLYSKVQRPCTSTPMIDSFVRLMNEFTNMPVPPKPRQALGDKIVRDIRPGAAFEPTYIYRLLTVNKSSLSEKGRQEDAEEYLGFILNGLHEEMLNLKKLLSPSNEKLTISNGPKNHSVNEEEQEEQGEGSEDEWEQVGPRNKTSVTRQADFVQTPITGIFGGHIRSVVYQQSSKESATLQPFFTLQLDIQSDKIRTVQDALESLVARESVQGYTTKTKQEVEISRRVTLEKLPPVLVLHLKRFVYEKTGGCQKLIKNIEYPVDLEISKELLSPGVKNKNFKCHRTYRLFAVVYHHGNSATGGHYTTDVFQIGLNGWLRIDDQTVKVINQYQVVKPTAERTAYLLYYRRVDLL", "assay": "in vitro DUB selectivity"}, "[9]": {"system": "USP1 shRNA knockout H596 cell strain", "assay": "colony-forming assay in USP1 shRNA cells", "assay_type": "cell-based, human"}, "[10]": {"system": "USP1 shRNA knockdown H596 cells", "assay": "cellular Ub-PCNA level in USP1 shRNA knockdown cells", "assay_type": "cell-based, human"}, "[11]": {"system": "U2OS cells", "assay": "FANCD2 subnuclear foci formation", "assay_type": "cell-based, human", "conditions": "ML323 30 μM, cisplatin 5 μM, vehicle 13.1%"}, "[12]": {"system": "70 unrelated proteases", "assay": "in vitro protease profiling"}, "[13]": {"system": "XPV + Polη cells", "assay": "UV sensitivity colony-forming assay", "conditions": "20 μM ML323"}, "[14]": {"system": "H596 cells", "assay": "cell cycle analysis", "assay_type": "cell-based, human"}, "[15]": {"biological_target": "USP5 (Homo sapiens, UniProt P45974)", "assay": "in vitro DUB selectivity", "assay_type": "biochemical"}, "[16]": {"biological_target": "USP8 (Homo sapiens, UniProt P40818)", "assay": "in vitro DUB selectivity", "assay_type": "biochemical"}, "[17]": {"system": "H596 cells", "assay": "cellular activity assay of USP1-UAF1", "assay_type": "cell-based, human", "conditions": "for change in levels of Ub-PCNA and Ub-FANCD2: H596, 6 h, cisplatin 100 μM, ML323 30 μM"}, "[18]": {"biological_target": "USP11 (Homo sapiens, UniProt P51784)", "sequence (P51784 whole entry)": "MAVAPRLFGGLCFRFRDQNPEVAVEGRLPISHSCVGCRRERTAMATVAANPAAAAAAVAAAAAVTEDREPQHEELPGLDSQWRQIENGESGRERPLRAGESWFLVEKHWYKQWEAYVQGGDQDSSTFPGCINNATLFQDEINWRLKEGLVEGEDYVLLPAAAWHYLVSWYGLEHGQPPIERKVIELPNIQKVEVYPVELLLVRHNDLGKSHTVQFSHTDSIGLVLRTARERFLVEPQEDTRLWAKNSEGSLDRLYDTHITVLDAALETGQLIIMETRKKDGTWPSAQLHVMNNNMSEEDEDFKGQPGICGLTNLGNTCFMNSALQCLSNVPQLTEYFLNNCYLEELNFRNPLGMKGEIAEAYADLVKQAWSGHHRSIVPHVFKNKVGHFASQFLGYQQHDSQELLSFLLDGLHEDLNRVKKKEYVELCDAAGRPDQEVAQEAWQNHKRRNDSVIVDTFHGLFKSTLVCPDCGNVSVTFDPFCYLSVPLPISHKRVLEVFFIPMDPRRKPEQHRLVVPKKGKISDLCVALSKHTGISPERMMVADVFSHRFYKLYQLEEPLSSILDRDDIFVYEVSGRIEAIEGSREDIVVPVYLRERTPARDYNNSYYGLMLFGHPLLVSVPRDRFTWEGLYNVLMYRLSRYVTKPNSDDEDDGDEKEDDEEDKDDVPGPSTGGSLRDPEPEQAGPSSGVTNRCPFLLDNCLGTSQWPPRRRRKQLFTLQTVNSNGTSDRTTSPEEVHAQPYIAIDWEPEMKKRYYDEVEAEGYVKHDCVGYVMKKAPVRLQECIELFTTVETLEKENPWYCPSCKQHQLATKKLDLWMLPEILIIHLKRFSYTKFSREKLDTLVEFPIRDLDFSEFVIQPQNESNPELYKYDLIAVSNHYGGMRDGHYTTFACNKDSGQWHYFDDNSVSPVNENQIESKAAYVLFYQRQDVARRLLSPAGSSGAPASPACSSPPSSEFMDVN", "assay": "in vitro DUB selectivity", "assay_type": "biochemical"}, "[19]": {"system": "DR-U2OS cells", "assay": "HR assay", "assay_type": "cell-based, human", "conditions": "30 μM ML323, 2.56% in the absence of ML323"}, "[20]": {"system": "451 kinases", "assay": "in vitro kinase profiling", "assay_type": "biochemical"}, "[21]": {"system": "DUBs in the UCH, OTU and MJD families", "assay": "in vitro DUB profiling"}, "[22]": {"biological_target": "USP1 in HEK293T cells (Homo sapiens, UniProt O94782)", "assay": "cellular activity-based DUB profiling with HA-Ub-VME", "assay_type": "cell-based", "conditions": "100 μM cisplatin, ML323 0.5 to 50 μM"}, "[23]": {"biological_target": "T1, USP1-UAF1", "assay": "native gel electrophoresis of USP1-UAF1 complex", "conditions": "up to 100 times its IC50"}, "[24]": {"system": "USP8, USP7, CYLD, USP5, USP14, UCH-L3 and UCH-L1 in HEK293T cells", "assay": "cellular activity-based DUB profiling with HA-Ub-VME", "assay_type": "cell-based, human", "conditions": "100 μM cisplatin, ML323 0.5 to 50 μM"}, "[25]": {"biological_target": "NEDP1 (Homo sapiens, UniProt Q96LD8)", "sequence (Q96LD8 whole entry)": "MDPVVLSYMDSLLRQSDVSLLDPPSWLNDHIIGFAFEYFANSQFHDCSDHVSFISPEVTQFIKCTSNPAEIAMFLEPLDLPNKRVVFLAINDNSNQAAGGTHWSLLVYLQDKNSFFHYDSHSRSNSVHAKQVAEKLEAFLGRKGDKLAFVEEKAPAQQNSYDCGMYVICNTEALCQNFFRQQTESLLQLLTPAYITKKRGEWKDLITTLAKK", "assay": "in vitro deneddylase selectivity", "assay_type": "biochemical"}, "[26]": {"biological_target": "USP46-UAF1 (Homo sapiens, UniProt P62068)", "sequence (P62068 whole entry)": "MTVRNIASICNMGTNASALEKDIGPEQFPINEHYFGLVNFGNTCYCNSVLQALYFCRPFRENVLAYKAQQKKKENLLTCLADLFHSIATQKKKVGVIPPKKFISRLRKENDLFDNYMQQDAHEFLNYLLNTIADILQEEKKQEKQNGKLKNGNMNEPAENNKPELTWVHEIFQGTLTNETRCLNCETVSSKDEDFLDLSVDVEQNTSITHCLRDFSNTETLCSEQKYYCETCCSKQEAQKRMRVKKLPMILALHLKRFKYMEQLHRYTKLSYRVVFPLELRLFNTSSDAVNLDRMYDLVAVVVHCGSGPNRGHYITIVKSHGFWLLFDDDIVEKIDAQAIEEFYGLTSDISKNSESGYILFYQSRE", "sequence (Q8TAF3 whole entry partner)": "as the sequence (Q8TAF3 whole entry partner) above", "assay": "in vitro DUB selectivity", "assay_type": "biochemical"}, "[27]": {"system": "H596 cells", "assay": "colony-forming assay", "assay_type": "cell-based, human"}, "[28]": {"biological_target": "USP21 (Homo sapiens, UniProt Q9UK80)", "assay": "in vitro DUB selectivity", "assay_type": "biochemical"}, "[29]": {"system": "U2OS cells", "assay": "SCE assay", "assay_type": "cell-based, human", "conditions": "ML323 30 μM, cisplatin 15 μM, control 0.12"}, "[30]": {"system": "XPV cells", "assay": "UV sensitivity colony-forming assay", "assay_type": "cell-based, human", "conditions": "20 μM ML323"}, "[31]": {"biological_target": "USP2 (Homo sapiens, UniProt O75604)", "assay": "in vitro DUB selectivity", "assay_type": "biochemical"}, "[32]": {"biological_target": "T1, USP1-UAF1", "assay": "HA-Ub-VME labeling of purified USP1-UAF1", "conditions": "biochemical assay"}, "[33]": {"system": "PD20 + D2 cells", "assay": "cytotoxicity assay", "conditions": "PD20 + D2, cisplatin alone"}, "[34]": {"system": "H460 cell line", "assay": "colony-forming assay", "conditions": "read-out: EC50 of cell killing; cisplatin-sensitive NSCLC H460"}}, "note": "Where two headings read alike, the source gives them in different places."}
{"smiles": "CC(C)(Sc1ccc(CCN(CCCCC2CCCCC2)C(=O)NC2CCCCC2)cc1)C(=O)O", "note": "[GW7647]", "values": [{"measurement": "affinity as inhibitor of human USP1-UAF1", "setting": "[1]", "result": "low micromolar"}]}
{"smiles": "Cc1cnc(-c2ccccc2C(C)C)nc1NCc1ccc(-n2ccnn2)cc1", "note": "[ML323]", "values": [{"measurement": "inhibition of SENP1", "setting": "[2]", "result": "did not inhibit"}, {"measurement": "inhibition of USP14", "setting": "[3]", "result": "little to no inhibition"}, {"measurement": "LD50 of UV sensitivity", "setting": "[4]", "result": 2.8, "unit": "J m^−2"}, {"measurement": "reversibility of inhibition", "setting": "[5]", "result": "reversible inhibitor"}, {"measurement": "LD50 of UV sensitivity", "setting": "[6]", "result": 3.4, "unit": "J m^−2"}, {"measurement": "inhibition mechanism", "setting": "[7]; Lineweaver-Burk, di-Ub cleavage", "result": "mixed inhibition mechanism"}, {"measurement": "inhibition constant for the enzyme-substrate complex (K'i)", "setting": "[7]; mixed inhibition", "result": 183, "unit": "nM"}, {"measurement": "inhibition of USP10", "setting": "[8]", "result": "little to no inhibition"}, {"measurement": "sensitization to cisplatin", "setting": "[9]", "result": "no further sensitization to cisplatin"}, {"measurement": "Ub-PCNA level, cisplatin vs combination of ML323 and cisplatin", "setting": "[10]", "result": "little difference in Ub-PCNA levels"}, {"measurement": "FANCD2 subnuclear foci formation", "setting": "[11]", "result": "no substantial change"}, {"measurement": "inhibition of other proteases", "setting": "[12]", "result": "no substantial inhibition"}, {"measurement": "LD50 of UV sensitivity", "setting": "[13]", "result": 4.7, "unit": "J m^−2"}, {"measurement": "decrease of UV LD50 vs UV treatment alone", "setting": "[13]", "result": 42, "unit": "%"}, {"measurement": "cell cycle delay or arrest", "setting": "[14]; H596, ML323 alone 20 μM", "result": "did not result in cell cycle delay or arrest"}, {"measurement": "inhibition of USP5", "setting": "[15]", "result": "little to no inhibition"}, {"measurement": "inhibition of USP8", "setting": "[16]", "result": "little to no inhibition"}, {"measurement": "change in levels of Ub-PCNA and Ub-FANCD2", "setting": "[17]", "result": "increase in the monoubiquitination of PCNA and FANCD2 was also observed"}, {"measurement": "time to effect on PCNA ubiquitination after treatment", "setting": "[17]; H596, ML323 alone or in combination with cisplatin", "result": "3 to 6", "unit": "h"}, {"measurement": "level of Ub-H2A", "setting": "[17]; H596, ML323 alone or with cisplatin", "result": "did not affect the level of Ub-H2A"}, {"measurement": "concentration at which increase in Ub-PCNA level is seen", "setting": "[17]; H596, absence or presence of cisplatin, 6 h", "result": "≥ 5", "unit": "µM"}, {"measurement": "inhibition of USP11", "setting": "[18]", "result": "little to no inhibition"}, {"measurement": "I-SceI-induced HR frequency", "setting": "[19]", "result": 0.81, "unit": "%"}, {"measurement": "inhibition of kinases", "setting": "[20]", "result": "no substantial inhibition"}, {"measurement": "inhibition of DUBs of UCH, OTU and MJD families", "setting": "[21]", "result": "little to no inhibition"}, {"measurement": "labeling of cellular USP1 by HA-Ub-VME", "setting": "[22]", "result": "clear decrease in the intensity of the labeled USP1 band"}, {"measurement": "disruption of the USP1-UAF1 complex", "setting": "[23]", "result": "ruled out the possibility that ML323 acts as a disruptor of the USP1-UAF1 complex"}, {"measurement": "labeling of other cellular DUBs by HA-Ub-VME", "setting": "[24]", "result": "did not inhibit the labeling of the DUBs tested"}, {"measurement": "inhibition of NEDP1", "setting": "[25]", "result": "did not inhibit"}, {"measurement": "inhibition of USP46-UAF1", "setting": "[26]", "result": "did not inhibit"}, {"measurement": "EC50", "setting": "[27]; Homo sapiens, NCI-H596, read-out: EC50 of cell killing", "result": "> 10000", "unit": "nM"}, {"measurement": "inhibition of USP21", "setting": "[28]", "result": "little to no inhibition"}, {"measurement": "SCE events per chromosome", "setting": "[29]", "result": 0.13, "unit": "SCE events per chromosome"}, {"measurement": "LD50 of UV sensitivity", "setting": "[30]", "result": 3.2, "unit": "J m^−2"}, {"measurement": "inhibition of USP2", "setting": "[31]", "result": "little to no inhibition"}, {"measurement": "labeling of USP1-UAF1 by HA-Ub-VME", "setting": "[32]", "result": "inhibited the labeling of USP1-UAF1 by HA-Ub-VME"}]}
{"smiles": "N.N.[Cl][Pt][Cl]", "note": "[cisplatin, reference compound]", "values": [{"measurement": "FANCD2 subnuclear foci formation", "setting": "[11]", "result": 59.4, "unit": "%"}, {"measurement": "population of cells in S phase", "setting": "[14]; H596, cisplatin 5 μM, ML323 20 μM", "result": 45, "unit": "%"}, {"measurement": "EC50", "setting": "[33]", "result": 12300, "unit": "nM"}, {"measurement": "EC50", "setting": "[34]", "result": 74, "unit": "nM"}, {"measurement": "change in levels of Ub-PCNA and Ub-FANCD2", "setting": "[17]", "result": "small increase"}, {"measurement": "EC50", "setting": "[27]; read-out: EC50 of cell killing, H596, single agent", "result": 486, "unit": "nM"}, {"measurement": "SCE events per chromosome", "setting": "[29]", "result": 0.99, "unit": "SCE events per chromosome"}]}
{"smiles": "O=c1[nH]c2ccccc2n1C1CCN(CCCC(c2ccc(F)cc2)c2ccc(F)cc2)CC1", "note": "[pimozide]", "values": [{"measurement": "affinity as inhibitor of human USP1-UAF1", "setting": "[1]", "result": "low micromolar"}]}
